# What was measured:
# Type in all cases: in vivo
# hApoE2 KI mice [1] = assay: hApoE2 KI mice on Western diet, 12 weeks, hepatic gene expression by quantitative RT-PCR; settings: 12 weeks in Western diet, Cpd 29 0.3 mg/kg/day
# Experimental: The compounds of the General Formula (I) were tested in vivo in a high fat diet mice model. Dyslipidemic “humanized” ApoE2 knock-in mice (hApoE2 KI) were fed a Western diet and treated during 12 weeks. The compounds of interest, including the Compound 29 of WO 2004/005233 at 0.3 mg/kg/day and the Fenofibrate at 100 mg/kg/day (used as a reference compound) were incorporated into the diet. At the end of the protocol, animals were sacrificed, livers were harvested and the hepatic expression of genes that are known to be implicated in the liver inflammation and the fibrosis processes were evaluated by quantitative RT-PCR (Panels A-D). Statistical analysis was performed as indicated for FIG. 1.
# Female hApoE2 knock-in (KI) transgenic mice (Sullivan et al., 1998)(4 weeks of age). Mice were kept on a 12-hour light/dark cycle at a constant temperature of 20±3° C. After a 1 week acclimation, mice were separated in groups of 7-10 animals selected such as the distribution of their body weight and plasmatic lipid levels determined before the experiment were uniform. Animals were fed a Western diet (20% saturated fat and 0.2% cholesterol, Harlan Teklad TD88137) at weaning and during 12 weeks. Compounds of interest (Cpd 29 at 0.3 mg/kg/day and Fenofibrate at 100 mg/kg/day) were incorporated in the Western diet (SAFE, Augy, France) and administrated to mice during 12 weeks. Control animals received Western diet only. Animals had access to food and water ad libitum.
# (§1) At the end of the studies, the animals were weighed and sacrificed under anesthesia. Blood was collected from the retro-orbital sinus; plasma was obtained by centrifugation (4 000 rpm, at 4° C. for 15 min) and subsequently frozen and stored at −20° C. Tissues and livers were isolated and snap-frozen in liquid nitrogen and stored at −80° C. for subsequent analysis (gene expression and biochemistry) or fixed in 4% paraformaldehyde for histology.
# Total RNA was isolated from frozen livers using the NucleoSpin® 96 RNA kit (Macherey Nagel), according to the manufacturer's instructions. Reverse transcription was performed on 1 μg of total RNA by action of 1 μl of MMLV-RT enzyme (Invitrogen) during 1 hour at 37° C. in a total volume of 30 μl. […] Quantitative PCR was then carried out using the MyiQ Single-Color Real-Time PCR Detection System (Biorad). […]
# The quantity of fluorescence emitted is directly proportional to the quantity of complementary DNA present at the start of the reaction and amplified during the PCR. The relative levels of expression were determined using the standard curve for each transcript. […] The induction factor, i.e. the ratio between the relative signal induced by the compound according to the invention and the average of the values relating to the control group, was then calculated for each sample. […]
# hApoE2 KI mice [2] = assay: hApoE2 KI mice on Western diet, 2 weeks, histological scores of liver steatosis and intralobular inflammation; settings: 30 mg/kg/day
# Experimental: (§2) Animals were fed a Western diet (20% saturated fat and 0.2% cholesterol, Harlan Teklad TD88137) during 2 weeks in the first study, that involved the daily administration of Cpd 29 (at 30 mg/kg/day by oral gavage), and during 6 weeks in the second study, that involved the daily administration of Compound 1 of WO 2007147879 (Cpd1, at 30 mg/kg/day by oral gavage). Control animals were treated with vehicle only (Carboxymethlycellulose 1%+Tween-80 0.1%). Animals had access to food and water ad libitum.
# as §1
# Formalin-fixed liver tissue was processed, and 5-μm-thick paraffin sections were stained with Hematoxylin and Eosin. The histological analysis of stained liver sections was carried out in blind conditions to quantify liver steatosis and liver intralobular inflammation. Liver steatosis was scored from 0 to 3 as follows: 0 (very slightly affected), 1 (slightly affected), 2 (moderately affected), 3 (highly affected). Liver intralobular inflammation was also scored depending on the number of inflammatory foci counted by field of observation as follows: 0 (<1 focus/field), 1 (1 to 2 foci/field), 2 (2 to 4 foci/field) 3 (more than 4 foci/field).
# Exemplary compounds of the General Formula (I) were tested in vivo in a high fat diet mice model. hApoE2 KI and hApoE2 KI/PPARalpha KO (“humanized” ApoE2 knock-in mice deficient for the mPPARalpha gene) were fed a Western diet and daily treated with the Cpd 29 at 30 mg/kg/day during 2 weeks. At the end of the protocol, liver steatosis and intra-lobular inflammation were evaluated in the control and treated mice by means of histological analysis and specific scores.
# [3] = tested on: hApoE2 KI/PPARalpha KO mice; assay: hApoE2 KI/PPARalpha KO mice on Western diet, hepatic gene expression by quantitative RT-PCR; settings: 30 mg/kg/day by gavage, 6 weeks
# Experimental: The compounds of the General Formula (I) were tested in vivo in a high fat diet mice model. Dyslipidemic “humanized” hApoE2 KI deficient for PPARalpha were fed a Western diet and treated during 6 weeks. The compounds of interest, including the Compound 29 of WO 2004/005233 at 30 mg/kg/day and the Compound 1 of WO 2007/147879 at 30 mg/kg/day were orally administrated by gavage. At the end of the protocol, animals were sacrificed, livers were harvested and the hepatic expression of relevant genes implicated in the liver inflammation and the fibrosis processes were evaluated by quantitative RT-PCR. In parallel, liver triglycerides contents were evaluated (Panels A-D). Statistical analysis was performed as indicated for FIG. 1.
# as §2, §1
# Total RNA was isolated from frozen livers using the NucleoSpin® 96 RNA kit (Macherey Nagel), according to the manufacturer's instructions. Reverse transcription was performed on 1 μg of total RNA by action of 1 μl of MMLV-RT enzyme (Invitrogen) during 1 hour at 37° C. in a total volume of 30 μl. The reaction conditions were 1× buffer (Invitrogen), 1.5 mM DTT (Invitrogen), 0.18 mM dNTPs (Promega), 200 ng pdN6 (Amersham), 30U RNase inhibitor (Promega). Quantitative PCR was then carried out using the MyiQ Single-Color Real-Time PCR Detection System (Biorad). Briefly PCR reactions were performed in 96 well plates on 5 μl of diluted reverse transcription mix using the iQ SYBR Green Supermix kit. The reaction conditions were: 25 μl of volume reaction, 3 mM of MgCl2, and 0.5 μl of each reverse and forward primer solutions (10 pMol), Tm of 60° C.
# The quantity of fluorescence emitted is directly proportional to the quantity of complementary DNA present at the start of the reaction and amplified during the PCR. The relative levels of expression were determined using the standard curve for each transcript. The results were then normalized in regard to the signals obtained with the 36B4 control (a reference transcript for hepatic gene expression). The induction factor, i.e. the ratio between the relative signal induced by the compound according to the invention and the average of the values relating to the control group, was then calculated for each sample. The higher this factor, the more the compound promotes target gene expression. The final result is depicted as the average of the induction values in each experimental group.
# In another study, the liver-specific anti-inflammatory and anti-fibrotic properties effects of Cpd 29 and Compound 1 of WO 2007/147879 (Cpd 1) were evaluated in the hApoE2 KI/PPARalpha KO mice that were fed a Western diet and daily treated with the selected compounds during 6 weeks.
substance,measurement,setting,value
"1-[4-methylthiophenyl]-3-[3,5-dimethyl-4-carboxydimethylmethyloxyphenyl]prop-2-en-1-one [Cpd 29]",hepatic expression of Col1a1 (collagen genes),"hApoE2 KI mice [1]; Fenofibrate 100 mg/kg/day, FIG. 3D",statistically significant inhibition
same,hepatic expression of TNFα,hApoE2 KI mice [1]; FIG. 3A,inhibited
same,hepatic expression of CCL5,hApoE2 KI mice [1]; FIG. 3B,inhibited
same,hepatic expression of TGFβ,hApoE2 KI mice [1]; FIG. 3C,inhibited
same,development of liver inflammation induced by the diet,"hApoE2 KI mice [2]; hApoE2 KI mice, Western diet",inhibits
same,development of liver steatosis induced by the diet,"hApoE2 KI mice [2]; hApoE2 KI mice, Western diet",inhibits
same,Liver Inflammation (score) 0,"hApoE2 KI mice [2]; share of group with score 0 (<1 focus/field), hApoE2 KI",100%
same,Liver Steatosis (score) 0,"hApoE2 KI mice [2]; share of group with score 0 (very slightly affected), hApoE2 KI",83%
same,Liver Inflammation (score) 1,"hApoE2 KI mice [2]; share of group with score 1 (1 to 2 foci/field), hApoE2 KI",0%
same,Liver Steatosis (score) 1,"hApoE2 KI mice [2]; share of group with score 1 (slightly affected), hApoE2 KI",17%
same,Liver Inflammation (score) 2,"hApoE2 KI mice [2]; share of group with score 2 (2 to 4 foci/field), hApoE2 KI",0%
same,Liver Steatosis (score) 2,"hApoE2 KI mice [2]; share of group with score 2 (moderately affected), hApoE2 KI",0%
same,Liver Steatosis (score) 3,"hApoE2 KI mice [2]; share of group with score 3 (highly affected), hApoE2 KI",0%
same,Liver Inflammation (score) 3,"hApoE2 KI mice [2]; share of group with score 3 (more than 4 foci/field), hApoE2 KI",0%
same,liver expression of TNFα,[3]; FIG. 4A,inhibited
same,liver expression of TGFβ,[3]; FIG. 4B,inhibited
same,liver expression of collagen,[3]; FIG. 4C,inhibited

# — US10722575B2, “Use of 1,3-diphenylprop-2-en-1-one derivatives for treating liver disorders” (GENFIT, priority 2009, dated 2020)
